Assay results taken from ChEMBL document CHEMBL1145156, “Identification of novel extracellular signal-regulated kinase docking domain inhibitors” (J Med Chem, 2005).

Columns and labels:
[1] = biological target: Mitogen-activated protein kinase 1 (Homo sapiens, UniProt P28482); test: Dissociation constant for ERK2 kinase
A549 = test: Inhibitory concentration against growth of A549 lung carcinoma cell; assay type: functional, cell-based; settings: Homo sapiens
HeLa = test: Inhibitory concentration against HeLa cell colony formation; Range is 15-20 uM; assay type: functional, cell-based; settings: Homo sapiens

Chain of Mitogen-activated protein kinase 1 (P28482 whole entry): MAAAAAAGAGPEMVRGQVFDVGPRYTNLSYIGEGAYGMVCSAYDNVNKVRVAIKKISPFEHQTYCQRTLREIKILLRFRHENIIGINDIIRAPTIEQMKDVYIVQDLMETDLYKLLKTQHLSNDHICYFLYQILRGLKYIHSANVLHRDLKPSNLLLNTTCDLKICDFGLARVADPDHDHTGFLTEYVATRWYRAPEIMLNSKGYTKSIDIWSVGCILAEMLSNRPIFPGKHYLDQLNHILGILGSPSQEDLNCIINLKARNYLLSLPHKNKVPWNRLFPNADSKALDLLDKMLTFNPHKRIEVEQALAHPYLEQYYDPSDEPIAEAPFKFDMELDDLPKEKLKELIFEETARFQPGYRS

Kd [1] [µM] | IC50 (A549) [µM] | IC50 (HeLa) [µM] | Structure (SMILES)
5 | 25 | 20 | CCOc1ccc(/C=C2\SC(=O)N(CCN)C2=O)cc1
– | 15 | 20 | O=C(CCN1CCN(C/C=C/c2ccccc2)CC1)Nc1ccc(Cl)cc1
5 | – | – | O=C(CSc1nc2ccccc2o1)Nc1ccc(-n2cnnn2)cc1
